Source: patent US20080090297A1, “Methods for determining the metal bioavailability of metal sources” (Novus International Inc., priority 2006, published 2008)

Experiments:
[1] = tested on: metallothionein (MT) mRNA; experiment: Bioavailability of different zinc compositions in chickens, MT mRNA in jejunum mucosal scrapings by QRT-PCR; format: in vivo, chicken; details: 70 ppm zinc in corn-soy diet for 2 days (day 21 to 23); six birds per treatment; 18S-normalized; P≦0.05
Protocol: Chickens were fed a low zinc pre-feed diet for 20 days. On day 21, they were switched to a corn-soy diet supplemented with one of the following: 1) unsupplemented for zinc (control); 2) 70 ppm zinc from ZnOxide; 3) 70 ppm zinc from a zinc amino acid complex (Zn AAC); 4) 70 ppm zinc from Zn(HMTBA)2. On day 23, six birds from each treatment were weighed, sacrificed, and jejunum samples were collected. The lumen was rinsed with 3-4 ml of cold saline, the jejunum was cut open lengthwise, and the mucosal surface was scraped with a glass slide. Cell scrapings were collected into 0.9 ml of RNAlater. RNA was isolated as described in Example 1. QRT-PCR was performed as described in Example 1, and 18S-normalized MT mRNA expression was determined.

[2] = tested on: metallothionein (MT) mRNA; experiment: Induction of metallothionein (MT) mRNA by zinc in chicken tissues, QRT-PCR; format: in vivo; details: high zinc diet (34 ppm basal + 64 ppm zinc from Zn(HMTBA)2) vs low zinc diet (34 ppm); day 29; normalized to 18S rRNA; one bird per group
From the text: Zinc treatment and sample collection. Upon hatching, chicks were placed on a moderately Zn-deficient starter diet. On day 13, they were switched to two different test diets: some were fed a low zinc diet with no zinc supplements (the diet contained 34 ppm zinc in the basal feedstuffs) and the rest were fed a high zinc diet comprising 34 ppm zinc in the feedstuffs and 64 ppm zinc from Zn(HMTBA)2 for a total of 98 ppm zinc. On day 29, a chicken from each group was sacrificed and the following tissues were collected: jejunum (small intestine), jejunum mucosal scrapings, liver, and kidney. The lumen of a 2-3 inch long jejunum section was rinsed with 3-4 ml of cold saline. The jejunum was cut open lengthwise and placed mucosa-side up on a clean cutting board. One piece of jejunum, no greater than 0.5 cm in any direction, was placed into a microcentrifuge tube containing 0.9 ml of RNAlater solution, and stored according to the manufacturer's instructions (Ambion, Austin Tex.). The jejunum section's remaining mucosal surface was scraped with a glass slide. Cell scrapings were collected and placed into 0.9 ml RNAlater. The other tissues were stored in RNAlater. RNA was isolated using the High Pure RNATissue Prep Kit (Roche Applied Science, Cat No 12033674001) following the manufacturer's instructions. The concentration of RNA was determined using a spectrophotometer, and the concentration of RNA was adjusted to a maximum of 0.5 mg/ml by dilution with elution buffer. The RNA samples were either used immediately, or frozen on dry ice and stored at −80° C. until use.
Reverse Transcriptase and Quantitative PCR. First strand cDNA synthesis was performed using the Transcriptor Reverse Transcriptase® (Roche Applied Science, Indianapolis, Ind., catalog #04379012001), using the instructions supplied by the manufacturer. Each first-strand synthesis reaction contained 0.5 μg of total RNA. The reverse transcription was performed in a thermocycler using the following program: a brief, 90 sec denaturation step at 65° C.; annealing for 30 sec at 40° C.; 30 min cDNA synthesis at 55° C.; and enzyme inactivation by 5 min denaturation at 85° C. The reaction product was concentrated by ethanol precipitation, rinsed and dried. The sample was then resuspended in 400 μl of nuclease-free water and A260/A280 was measured to ensure that cDNA concentration in each sample would fall within the range of concentration usable by the QRT-PCR assay.
MT mRNA and 18S rRNA levels were measured by QRT-PCR on a Roche LightCycler®, using the LightCycler® FastStart DNA Master HybProbe Kit (Roche Molecular Systems, Inc, Alameda, Calif., catalog #300324) using 0.5 μM of each primer and 0.2 μM of each TaqMan probe, as shown in Table 1. […]

[3] = tested on: metallothionein (MT) mRNA; experiment: Time course of zinc-induced expression of metallothionein in chicken jejunum, QRT-PCR; format: in vivo
From the text: A total of 54 chickens were fed a low zinc/low copper milo starter diet for 10 days. On day 11 (t=Day 0), the birds were split into two groups: 18 were fed a corn-soy diet supplemented with 25 ppm copper oxide and no zinc (“Cu”) and 36 were fed a corn-soy diet supplemented with 25 ppm copper oxide and 70 ppm zinc from Zn(HMTBA)2 (“Cu+Zn(HMTBA)2”). On days 13 (t=Day 2), 16 (t=Day 5) and 19 (t=Day 8), three “Cu” and three “Cu+Zn(HMTBA)2” birds per day were weighed and sacrificed. The mid-jejunum was collected from each bird. The lumen was rinsed with 3-4 ml of cold saline, and each sample was divided into two pieces, with each piece being no larger than 0.5 cm in any direction. The two pieces from each bird were placed in separate microcentrifuge tubes containing 0.9 ml of RNAlater solution.
RNA was isolated (RNA from the two pieces from each bird were pooled), and 18S-normalized MT mRNA expression levels were measured by QRT-PCR as described in Example 1. The data are expressed as MT mRNA expression relative to the low zinc jejunum reference sample from Example 1.

Row | fold induction of MT mRNA in jejunum [2] | fold induction of MT mRNA in jejunum mucosal scrapings [2] | fold induction of MT mRNA in kidney [2] | fold induction of MT mRNA in liver [2] | Compound | levels of MT mRNA induced in jejunum mucosal scrapings [1] | MT mRNA expression in jejunum, overall effect of treatment ([3]; 70 ppm zinc from Zn(HMTBA)2 + 25 ppm copper oxide vs 25 ppm copper oxide only, days 2, 5, 8, P=0.0077) | MT mRNA expression in jejunum, difference between treatments by day ([3]; Cu+Zn(HMTBA)2 vs Cu diet, three birds per treatment per day, days 2, 5 and 8)
1 | 34 fold | 125 fold | 9 fold | 19 fold | CSCCC(O)C(=O)[O-].CSCCC(O)C(=O)[O-].[Zn+2] (centres unmarked) [Zn(HMTBA)2] | significantly greater than those induced by ZnOxide or the Zn AAC | increased MT expression | Significant differences in MT expression are seen between treatments on days 5 and 8
2 | – | – | – | – | [O-2].[Zn+2] [ZnOxide, zinc oxide, reference compound] | not significantly greater than MT expression in the unsupplemented birds | – | –
